According to patent US7868026B2, “Therapeutic compounds” (Pfizer Inc., priority 2005, dated 2011):
Read-outs that look alike come from different tables or passages of the source.

What was measured:
CYP3A4 [1] = biological target: T1, CYP3A4 (Homo sapiens, UniProt P08684); test: Determination of compound Kiapp against recombinant CYP3A4 enzyme (BFC fluorescent substrate); type: biochemical
Protocol: 1. Determination of compound Kiapp
A determination of the Kiapp of the compounds of the invention against recombinant CYP3A4 enzyme was performed as follows. The assay was performed in a 100 mM sodium phosphate buffer pH 7.0, 5 mM TCEP and containing 2% dimethylformamide (final concentration) upon addition of substrate and inhibitor. A typical reaction for the determination of Kiapp values was carried at room temperature in a solid black Costar u-bottom 96-well polypropylene plate. In each well, recombinant CYP3A4 enzyme (5.5 nM or 8 nM, final concentration depending on the commercial source of the enzyme) was pre-incubated in the presence of the inhibitor for at least 30 minutes in the assay buffer. When pre-incubation was completed (˜30 min), the reaction was initiated by adding NADPH (200 uM, final concentration), and 7-benzyloxy-4-(trifluoromethyl)-coumarin (BFC) (5 uM, final concentration). The oxidation of the coumarin substrate was recorded by a 96-well plate reader POLARstar (BMG LABTECH, Offenburg, Germany).
The initial reaction velocities were measured during the first 5 min of the reaction when the release of the fluorescent product is linear with time, in the absence and in the presence of various concentrations of inhibitors. For non-partial & partial inhibitors, the Kiapp values were determined by using the equation for tight-binding inhibitor developed by Morrison, J F (Morrison J F. Biochim Biophys Acta. 1969, 185: 269-86) and by Szedlaseck S E et al. (Szedlascek, S. E., Ostafe, V., Serban, M., and Vlad, M.O. Biochem. J. 1988, 254:311-312), respectively.
The fluorescent substrate BFC was purchased from Sigma (St Louis, Mo.). Two commercial sources of recombinant enzymes were used in this study: recombinant CYP3A4−b5 enzyme (Baculosomes®) was purchased from Invitrogen (Carlsbad, Calif.) and the recombinant CYP3A4+b5 enzyme (Supersomes®) was purchased from BD Biosciences (Woburn, Mass.).

CYP3A4 [2] = biological target: T1, CYP3A4; test: Determination of IC50 against CYP3A4 by measurement of inhibition of midazolam metabolism (human liver microsomes, 1-hydroxymidazolam by LC-MS/MS); type: biochemical; design: 0.1 mg/mL human liver microsomes; details: 2 μM midazolam, 0.1 mg/mL human liver microsomes
Protocol: 3. Determination of IC50 Against CYP3A4 by Measurement of Inhibition of Midazolam Metabolism
This assay was performed using a standard 96 well plate design. […] The incubation substrate mix contains 2 μM midazolam, 0.1 mg/mL human liver microsomes, 1 mM NADPH, and potassium phosphate buffer (100 mM, pH 7.4). Quantitation of metabolite peak area ratio against internal standard is determined by LC-MS/MS analysis. The production of 1-hydroxymidazolam from midazolam metabolism is determined after incubation for eight minutes by comparison to a standard curve generated for the metabolite.
Samples were analyzed in the MRM mode using a Sciex API 3000 mass spectrometer (Applied Biosystems, Foster City, Calif.) with a Paradigm MS4 binary pump (Michrom BioResources Inc., Auburn, Calif.) and a LEAP CTC PAL autosampler (LEAP Technologies, Carrboro, N.C.). A Phenomenex Synergi, 4μ, Polar-RP, 10×2.0 mm column (Phenomenex, Torrance, Calif.) was used for separation with a mobile phase composition of: 0.1% formic acid in water (A) and: 0.1% formic acid in methanol (B). The following gradient was used: […]
The sample injection volume was 10 μL and flow was split post-column with 0.4 mL/min going to the mass spectrometer. Analysis was performed using the following API 3000 mass spectrometer settings: […]

[3] = Baculo. enzyme preparation, read-out: Kiapp (BFC, Baculo.)
[4] = Super. enzyme preparation, read-out: Kiapp (BFC, Super.)

T1 sequence (P08684 whole entry): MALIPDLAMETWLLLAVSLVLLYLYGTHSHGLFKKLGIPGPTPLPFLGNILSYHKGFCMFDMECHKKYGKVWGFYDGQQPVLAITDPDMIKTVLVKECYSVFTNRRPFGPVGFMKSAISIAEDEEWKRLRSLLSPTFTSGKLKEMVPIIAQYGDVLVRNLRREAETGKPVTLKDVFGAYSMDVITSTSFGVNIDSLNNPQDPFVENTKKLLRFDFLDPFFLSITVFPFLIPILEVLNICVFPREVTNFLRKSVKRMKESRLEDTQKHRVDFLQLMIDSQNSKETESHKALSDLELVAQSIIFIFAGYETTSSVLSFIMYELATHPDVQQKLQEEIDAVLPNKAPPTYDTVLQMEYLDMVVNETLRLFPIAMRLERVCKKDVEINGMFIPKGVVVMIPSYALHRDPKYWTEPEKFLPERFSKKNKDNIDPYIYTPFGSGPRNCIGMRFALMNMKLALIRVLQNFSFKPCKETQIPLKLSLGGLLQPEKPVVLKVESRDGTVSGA

| Structure (SMILES) | Ki (CYP3A4 [1]; [3]) | Ki (CYP3A4 [1]; [4]) | IC50 (CYP3A4 [2]) |
| --- | --- | --- | --- |
| COc1cncc(NS(=O)(=O)c2ccccc2C(=O)N(CCO)C(C)C)c1 [Example 98, N-(2-hydroxyethyl)-N-isopropyl-2-{[(5-methoxypyridin-3-yl)amino]sulfonyl}benzamide] | 506 nM | 196 nM | 51 nM |
| CCN(C(=O)c1ccccc1S(=O)(=O)Nc1cncc(OC)c1)C(C)C [Example 109, N-ethyl-N-isopropyl-2-{[(5-methoxypyridin-3-yl)amino]sulfonyl}benzamide] | 213 nM | 37.2 nM | 35 nM |
| CCC(C)NC(=O)c1ccccc1S(=O)(=O)Nc1cnccc1OC (stereo not drawn) [Example 120, N-(sec-butyl)-2-{[(4-methoxypyridin-3-yl)amino]sulfonyl}benzamide] | 487 nM | 140 nM | 86 nM |
| COc1cncc(NS(=O)(=O)c2ccccc2C(=O)N(Cc2nccn2C)C(C)C)c1 [Example 97, N-isopropyl-2-{[(5-methoxypyridin-3-yl)amino]sulfonyl}-N-[(1-methyl-1H-imidazol-2-yl)methyl]benzamide] | 421 nM | 157 nM | 107 nM |
| COc1ccncc1NS(=O)(=O)c1ccccc1C(=O)N(C)Cc1cccc(F)c1 [Example 104, N-(3-fluorobenzyl)-2-{[(4-methoxypyridin-3-yl)amino]sulfonyl}-N-methylbenzamide] | 141 nM | 23.5 nM | 35 nM |
| CCOc1ccncc1NS(=O)(=O)c1ccccc1C(=O)N(C)Cc1ccc(C(F)(F)F)cc1 [Example 122, 2-{[(4-ethoxypyridin-3-yl)amino]sulfonyl}-N-methyl-N-[4-(trifluoromethyl)benzyl]benzamide] | 49.5 nM | 10 nM | 31 nM |
| CCC(C)NC(=O)c1ccccc1S(=O)(=O)Nc1cncc(C)c1 (stereo not drawn) [Example 121, N-(sec-butyl)-2-{[(5-methylpyridin-3-yl)amino]sulfonyl}benzamide] | 490 nM | 71.2 nM | 31 nM |
| CCCN(C(=O)c1ccccc1S(=O)(=O)Nc1cncc(OC)c1)C(C)C [Example 100, N-isopropyl-2-{[(5-methoxypyridin-3-yl)amino]sulfonyl}-N-propylbenzamide] | 88.3 nM | 35.7 nM | 14 nM |
| CCOc1ccncc1NS(=O)(=O)c1ccccc1C(=O)N[C@H](C)C(C)C [Example 110, N-[(1R)-12-dimethylpropyl]-2-{[(4-ethoxypyridin-3-yl)amino]sulfonyl}benzamide] | 156 nM | 50.4 nM | 26 nM |
| COc1ccncc1NS(=O)(=O)c1ccccc1C(=O)N(C)Cc1ccc(C(F)(F)F)cc1 [Example 123, 2-{[(4-methoxypyridin-3-yl)amino]sulfonyl}-N-methyl-N-[4-(trifluoromethyl)benzyl]benzamide] | 72.5 nM | 15.2 nM | 10 nM |
| CCOc1ccncc1NS(=O)(=O)c1ccccc1C(=O)NC(C)(C)CC [Example 105, N-(1,1-dimethylpropyl)-2-{[(4-ethoxypyridin-3-yl)amino]sulfonyl}benzamide] | 83.1 nM | 28.6 nM | 21 nM |
| COCCN(C(=O)c1ccccc1S(=O)(=O)Nc1cncc(N)c1)C(C)C [Example 114, 2-{[(5-aminopyridin-3-yl)amino]sulfonyl}-N-isopropyl-N-(2-methoxyethyl)benzamide] | 466 nM | 105 nM | 134 nM |
| Cc1ccncc1NS(=O)(=O)c1ccccc1C(=O)N(C)Cc1ccc(F)cc1 [Example 144, N-(4-fluorobenzyl)-N-methyl-2-{[(4-methylpyridin-3-yl)amino]sulfonyl}benzamide] | 327 nM | 39 nM | 72 nM |
| CCC(C)CNC(=O)c1ccccc1S(=O)(=O)Nc1cncc(C)c1 (stereo not drawn) [Example 118, N-(2-methylbutyl)-2-{[(5-methylpyridin-3-yl)amino]sulfonyl}benzamide] | 103 nM | 13.5 nM | 18 nM |
| CN(Cc1ccc(F)cc1)C(=O)c1ccccc1S(=O)(=O)Nc1cccnc1 [Example 141, N-(4-fluorobenzyl)-N-methyl-2-[(pyridin-3-ylamino)sulfonyl]benzamide] | 172 nM | 21.1 nM | 36 nM |
| COc1cncc(NS(=O)(=O)c2ccccc2C(=O)NCCc2ccc(C)c(F)c2F)c1 [Example 136, N-[2-(2,3-difluoro-4-methylphenyl)ethyl]-2-{[(5-methoxypyridin-3-yl)amino]sulfonyl}benzamide] | 59.8 nM | 4.8 nM | 10 nM |
| COc1cncc(NS(=O)(=O)c2ccccc2C(=O)NCCc2ccc(F)c(F)c2)c1 [Example 137, N-[2-(3,4-difluorophenyl)ethyl]-2-{[(5-methoxypyridin-3-yl)amino]sulfonyl}benzamide] | 115 nM | 7.3 nM | 18 nM |
| CCC(C)CNC(=O)c1ccccc1S(=O)(=O)Nc1cnccc1OC (stereo not drawn) [Example 116, 2-{[(4-methoxypyridin-3-yl)amino]sulfonyl}-N-(2-methylbutyl)benzamide] | 317 nM | 50.9 nM | 33 nM |
| CCOc1ccncc1NS(=O)(=O)c1ccccc1C(=O)NCC(C)CC (stereo not drawn) [Example 115, 2-{[(4-ethoxypyridin-3-yl)amino]sulfonyl}-N-(2-methylbutyl)benzamide] | 124 nM | 26 nM | 23 nM |
| COc1cncc(NS(=O)(=O)c2ccccc2C(=O)NCc2ccc(C)c(Cl)c2)c1 [Example 138, N-(3-chloro-4-methylbenzyl)-2-{[(5-methoxypyridin-3-yl)amino]sulfonyl}benzamide] | 19.6 nM | 2.7 nM | 16 nM |
| CCOc1ccncc1NS(=O)(=O)c1ccccc1C(=O)N(C)Cc1cccc(F)c1 [Example 103, 2-{[(4-ethoxypyridin-3-yl)amino]sulfonyl}-N-(3-fluorobenzyl)-N-methylbenzamide] | 129 nM | 26 nM | 21 nM |
| COCCN(C(=O)c1ccccc1S(=O)(=O)Nc1cncc(C)c1)C(C)C [Example 130, N-isopropyl-N-(2-methoxyethyl)-2-{[(5-methylpyridin-3-yl)amino]sulfonyl}benzamide] | 134 nM | 62.8 nM | 22 nM |
| CC[C@H](C)CNC(=O)c1ccccc1S(=O)(=O)Nc1cncc(OC)c1 [Example 96, 2-{[(5-methoxypyridin-3-yl)amino]sulfonyl}-N-[(2S)-2-methylbutyl]benzamide] | 124 nM | 22.3 nM | 9 nM |
| CCC(C)NC(=O)c1ccccc1S(=O)(=O)Nc1cncc(N)c1 (stereo not drawn) [Example 113, 2-{[(5-aminopyridin-3-yl)amino]sulfonyl}-N-(sec-butyl)benzamide] | 698 nM | 97.5 nM | 90 nM |
| COc1ccncc1NS(=O)(=O)c1ccccc1C(=O)N[C@H](C)C(C)C [Example 112, N-[(1R)-12-dimethylpropyl]-2-{[(4-methoxypyridin-3-yl)amino]sulfonyl}benzamide] | 438 nM | 119 nM | 46 nM |
| COc1cncc(NS(=O)(=O)c2ccccc2C(=O)NCc2cc(F)ccc2F)c1 [Example 147, N-(2,5-difluorobenzyl)-2-{[(5-methoxypyridin-3-yl)amino]sulfonyl}benzamide] | 209 nM | 19.2 nM | 16 nM |
| COc1cncc(NS(=O)(=O)c2ccccc2C(=O)NCCc2ccc(C(F)(F)F)c(F)c2)c1 [Example 134, N-{2-[3-fluoro-(trifluoromethyl)phenyl]ethyl}-2-{[(5-methoxypyridin-3-yl)amino]sulfonyl}benzamide] | 69.7 nM | 8.7 nM | 14 nM |
